{"source": "patent US20080255207A1", "about": "“5-Thioxo-1,5-Dihydro-2H-Pyrrol-2-One Derivatives As Liver X Receptor Modulators” (ASTRAZENECA AB, priority 2005, published 2008)", "key": {"human LXRalpha": {"target": "T1, human LXRalpha (Homo sapiens, UniProt Q13133)", "T1 construct": "human LXRalpha (amino acid 205-447); expressed in transfected cells; host or cells: U2/OS osteosarcoma cells, electroporated with pSGGAL-LXRalpha", "T1 sequence (Q13133 205-447)": "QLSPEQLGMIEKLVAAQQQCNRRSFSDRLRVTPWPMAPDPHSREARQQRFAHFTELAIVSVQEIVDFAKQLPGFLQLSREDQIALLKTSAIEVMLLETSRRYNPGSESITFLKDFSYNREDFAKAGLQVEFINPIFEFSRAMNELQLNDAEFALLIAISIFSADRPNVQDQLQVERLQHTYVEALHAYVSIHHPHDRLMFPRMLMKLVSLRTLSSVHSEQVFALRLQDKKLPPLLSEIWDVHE", "experiment": "Transactivation (reporter gene) assay, GAL4-LXRalpha LBD luciferase in U2/OS cells", "type": "cell-based", "settings": "U2/OS osteosarcoma cells, 48 h; T0901317 at 1 μM as 100% control", "protocol": "(§1) Expression vectors were prepared by inserting the ligand binding domain cDNA (complementary DNA) of human LXRalpha (amino acid 205447) and LXRbeta (amino acid 216-461) in frame with, 3′ to the yeast GAL4 transcription factor DNA binding domain and the nuclear localization signal from the T-antigen of Polyoma Virus in the eucaryotic expression vector pSG5 (Stratagene). The resulting expression vectors pSGGAL-LXRalpha and pSGGAL-LXRbeta were used in cotransfection experiments together with the pGL3 luciferase reporter plasmid containing a minirnal SV40 promoter and five copies of the UAS GAL4 recognition site. 2.5 μg pSGGAL-LXRalpha or beta were mixed with 25 μg pGL3 5×UAS and 22.5 μg pBluscript in 0.95 mL ice cold PBS containing approx. 4-9 milj. U2/OS osteosarcoma cells. After a five minute incubation on ice the cell/DNA mixture was electroporated in 0.4 cm cuvettes at 960 μF, 230 V using a BioRad electroporator and diluted to 0.32 milj cells/mL in complete DMEM (Dulbecco's Modified Eagle Medium) medium (Gibco 31966-021). Cells from at least two electroporations were pooled in order to avoid variations between different electroportations. […] Luciferase activity was measured using the “Luminescence 384 protocol” in the Wallac Victor reader after 15 min. incubation at room temperature. […]"}, "human LXRbeta": {"target": "T2, human LXRbeta (Homo sapiens, UniProt P55055)", "T2 construct": "LXRbeta (amino acid 216-461); expressed in transfected cells; host or cells: U2/OS osteosarcoma cells, electroporated with pSGGAL-LXRbeta", "T2 sequence (P55055 215-460 limits assumed)": "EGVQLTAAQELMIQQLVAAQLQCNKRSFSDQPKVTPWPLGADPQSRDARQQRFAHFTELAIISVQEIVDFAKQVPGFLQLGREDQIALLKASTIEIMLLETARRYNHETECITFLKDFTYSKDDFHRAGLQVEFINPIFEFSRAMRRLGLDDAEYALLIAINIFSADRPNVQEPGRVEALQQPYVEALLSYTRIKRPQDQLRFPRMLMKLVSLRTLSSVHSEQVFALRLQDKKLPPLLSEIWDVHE", "experiment": "Transactivation (reporter gene) assay, GAL4-LXRbeta LBD luciferase in U2/OS cells", "type": "cell-based", "settings": "U2/OS osteosarcoma cells, 48 h; T0901317 at 1 μM as 100% control", "protocol": "as §1"}}}
{"smiles": "Nc1ccc(CN2C(=O)C(Nc3ccc(OC(F)F)cc3)=C(c3ccccc3)C2=S)cn1", "note": "[Example 1, 1-[(6-aminopyridin-3-yl)methyl]-3-{[4-(difluoromethoxy)phenyl]amino}-4-phenyl-5-thioxo-1,5-dihydro-2H-pyrrol-2-one]", "values": [{"measurement": "EC50", "setting": "human LXRalpha", "result": 280, "unit": "nM"}, {"measurement": "EC50", "setting": "human LXRbeta", "result": 320, "unit": "nM"}]}
